The assay deals with Akute Kolitis. Briefly: Acetic acid-induced acute colitis in rats, morphological evaluation of the mucosa by image analysis. The class given is in vivo, Ratten. Conditions: rat, 3 x 200 mg/kg p.o.; for Anteil von Mukosabereichen Schädigungsstufe 0 (ohne Befund) an der Gesamtfläche des untersuchten Darmbereichs / Anteil von Mukosabereichen Schädigungsstufe 1 (Schwellung des Gewebes mit leichter Rötung) an der Gesamtfläche des untersuchten Darmbereichs / Anteil von Mukosabereichen Schädigungsstufe 2 (starke Rötung des Gewebes mit Einblutungen oder ulcerierenden Nekrosen) an der Gesamtfläche des untersuchten Darmbereichs: rectum and parts of distal colon, 3 days after induction with 5% acetic acid, mean ± spread.

The mark [1] stands for this setting: change versus control in words, p<0,01.

From patent publication EP0525814A1, “Use of di-tertbutylhydroxyphenyl derivatives for the therapy of inflammatory conditions of the gastrointestinal tract” (BOEHRINGER MANNHEIM GMBH, priority 1991, dated 1993) come the findings set out here.

Experimental: Beispiel 1 und Probucol wurden in einer Dosierung von 200 mg/kg/d 3 mal oral verabreicht. Die Behandlung wurde einen Tag vor Entzündungsinduktion mit 5% Essigsäure begonnen. […] Das Ausmaß einer entzündlichen Reaktion im Darm wird durch Begutachtung des Mukosa-Zustandes und Klassifizierung nach festgelegten Parametern bestimmt.
Akute Kolitis wurde bei 24 h nüchternen Ratten durch rektale Instillation von 5% Essigsäure (1,5ml/Tier) über eine 8 cm lange Sonde induziert. Die morphologische Auswertung des Mukosazustandes aus dem Rektum und Teilen des distalen Kolons (ca. 8 cm) erfolgte am 3. Tag nach Entzündungsinduktion, nachdem die Tiere getötet worden waren. Beispiel 1 und Probucol wurden in einer Dosierung von 200 mg/kg/d 3 mal p.o. (2,5 ml/kg) verabreicht. Die erste Gabe erfolgte 24 h vor Essigsäure-Applikation. Kontrolltieren wurde das Substanzlösungsmittel (20% DMSO in Öl) verabreicht.
Die morphologische Auswertung erfolgte an einem computergeschützten Bildanalyse-System. Es wurde der Anteil von entzündetem Gewebe an der Gesamtdarmoberfläche bestimmt. Folgende Schädigungsstufen wurden unterschieden: • - Stufe 0 : ohne Befund • - Stufe 1 : Schwellung des Gewebes mit leichter Rötung • - Stufe 2 : starke Rötung des Gewebes mit Einblutungen oder ulcerierenden Nekrosen

For `CC(C)(Sc1cc(C(C)(C)C)c(O)c(C(C)(C)C)c1)Sc1cc(C(C)(C)C)c(O)c(C(C)(C)C)c1` [Probucol, reference compound], the “Anteil von Mukosabereichen Schädigungsstufe 0 (ohne Befund) an der Gesamtfläche des untersuchten Darmbereichs” value is 0,12 ± 0,09%, the “Anteil von Mukosabereichen Schädigungsstufe 1 (Schwellung des Gewebes mit leichter Rötung) an der Gesamtfläche des untersuchten Darmbereichs” value is 52,78 ± 9,36% and the “Anteil von Mukosabereichen Schädigungsstufe 2 (starke Rötung des Gewebes mit Einblutungen oder ulcerierenden Nekrosen) an der Gesamtfläche des untersuchten Darmbereichs” value is 47,19 ± 9,36%. The “Einfluß auf die durch Essigsäure-Applikation hervorgerufenen Mukosaschädigungen” value (result in words) is listed as “keinen Einfluß”.
For `CC(C)(C)c1cc(CCNC(=O)CCc2cc(C(C)(C)C)c(O)c(C(C)(C)C)c2)cc(C(C)(C)C)c1O` [Beispiel 1], the “Anteil von Mukosabereichen Schädigungsstufe 0 (ohne Befund) an der Gesamtfläche des untersuchten Darmbereichs” value is recorded as 17,20 ± 8,93 %, the “Anteil von Mukosabereichen Schädigungsstufe 1 (Schwellung des Gewebes mit leichter Rötung) an der Gesamtfläche des untersuchten Darmbereichs” value is 66,96 ± 8,31 % and the “Anteil von Mukosabereichen Schädigungsstufe 2 (starke Rötung des Gewebes mit Einblutungen oder ulcerierenden Nekrosen) an der Gesamtfläche des untersuchten Darmbereichs” value is listed as 15,75 ± 6,24 %. Under setting [1], the “nur noch geschwollene Gewebebereiche (Schädigungsstufe 1)” value was “Zunahme” and the “stark geschädigte Darmanteile (Schädigungsstufe 2)” value is reported as “deutlicher Abnahme”. For the same compound, under “result in words, p<0,01 versus control”, the “größere, morphologisch normale Gewebebereiche (Schädigungsstufe 0)” value is “nachweisbar”.
